From PMC11500612, “Differential effects of inosine monophosphate dehydrogenase (IMPDH/GuaB) inhibition in Acinetobacter baumannii and Escherichia coli” (Journal of Bacteriology, 2024)

Tests used:
Format in all cases: biochemical
GuaB^Sa = GuaB^Sa (Staphylococcus aureus, UniProt Q2FJM6); assay: NADH production, NAD(P)H-Glo luminescence
Source text: NADH production, NAD(P)H-Glo luminescence on GuaB^Sa

GuaB^Ec = target: T1, GuaB^Ec (Escherichia coli, UniProt P0ADG7); assay: NADH production, absorbance at […] nm
T1 sequence (P0ADG7 1-488): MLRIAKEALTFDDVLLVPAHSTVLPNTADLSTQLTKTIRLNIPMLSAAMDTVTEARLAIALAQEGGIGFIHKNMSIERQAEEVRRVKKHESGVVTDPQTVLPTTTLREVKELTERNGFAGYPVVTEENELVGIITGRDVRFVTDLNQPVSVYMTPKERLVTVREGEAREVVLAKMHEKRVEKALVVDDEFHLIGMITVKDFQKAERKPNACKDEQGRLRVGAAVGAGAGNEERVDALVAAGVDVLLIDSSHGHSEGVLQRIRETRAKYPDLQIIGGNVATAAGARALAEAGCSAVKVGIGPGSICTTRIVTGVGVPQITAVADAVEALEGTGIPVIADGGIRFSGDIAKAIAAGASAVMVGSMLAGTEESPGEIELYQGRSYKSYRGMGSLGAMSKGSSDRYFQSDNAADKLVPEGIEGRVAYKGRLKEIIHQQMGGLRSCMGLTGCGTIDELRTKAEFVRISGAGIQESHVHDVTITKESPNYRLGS

hIMPDH2 = target: T2, hIMPDH2 (Homo sapiens, UniProt P12268); assay: enzyme inhibition, method not given
T2 construct: gene IMPDH2; not described in the main text
Source text: enzyme inhibition, method not described in main text on hIMPDH2

GuaB^Ab = target: T3, GuaB^Ab (Acinetobacter baumannii, UniProt D0CF46); assay: NADH production, NAD(P)H-Glo luminescence
T3 construct: recombinant A. baumannii GuaB
T3 sequence (D0CF46 1-488): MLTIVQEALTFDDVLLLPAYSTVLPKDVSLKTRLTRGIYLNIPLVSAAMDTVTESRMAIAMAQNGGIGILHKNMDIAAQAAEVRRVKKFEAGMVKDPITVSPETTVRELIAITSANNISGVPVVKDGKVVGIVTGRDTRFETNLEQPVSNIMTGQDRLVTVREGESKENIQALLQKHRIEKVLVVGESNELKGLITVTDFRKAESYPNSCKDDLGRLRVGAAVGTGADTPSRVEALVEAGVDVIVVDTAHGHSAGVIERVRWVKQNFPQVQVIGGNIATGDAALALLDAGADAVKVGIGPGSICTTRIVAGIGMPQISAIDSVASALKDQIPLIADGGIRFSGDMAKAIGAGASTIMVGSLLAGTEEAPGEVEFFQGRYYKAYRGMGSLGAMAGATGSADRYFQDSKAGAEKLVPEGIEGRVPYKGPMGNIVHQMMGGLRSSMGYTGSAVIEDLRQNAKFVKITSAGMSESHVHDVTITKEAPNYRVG
Source text: NADH production, NAD(P)H-Glo luminescence on GuaB^Ab

GuaB^Sa, sequence (Q2FJM6 whole entry): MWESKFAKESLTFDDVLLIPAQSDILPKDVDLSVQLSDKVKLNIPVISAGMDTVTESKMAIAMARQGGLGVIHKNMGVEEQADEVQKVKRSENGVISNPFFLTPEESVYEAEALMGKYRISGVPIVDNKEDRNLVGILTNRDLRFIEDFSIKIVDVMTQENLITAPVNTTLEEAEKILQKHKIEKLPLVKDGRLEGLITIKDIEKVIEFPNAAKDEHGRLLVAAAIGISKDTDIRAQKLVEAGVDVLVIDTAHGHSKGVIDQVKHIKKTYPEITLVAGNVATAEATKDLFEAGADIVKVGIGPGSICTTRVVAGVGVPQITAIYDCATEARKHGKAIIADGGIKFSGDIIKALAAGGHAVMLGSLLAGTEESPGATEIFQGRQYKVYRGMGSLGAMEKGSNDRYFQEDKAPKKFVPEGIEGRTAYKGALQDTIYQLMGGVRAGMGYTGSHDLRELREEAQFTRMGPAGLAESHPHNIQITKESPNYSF
T2 sequence (P12268 2-514): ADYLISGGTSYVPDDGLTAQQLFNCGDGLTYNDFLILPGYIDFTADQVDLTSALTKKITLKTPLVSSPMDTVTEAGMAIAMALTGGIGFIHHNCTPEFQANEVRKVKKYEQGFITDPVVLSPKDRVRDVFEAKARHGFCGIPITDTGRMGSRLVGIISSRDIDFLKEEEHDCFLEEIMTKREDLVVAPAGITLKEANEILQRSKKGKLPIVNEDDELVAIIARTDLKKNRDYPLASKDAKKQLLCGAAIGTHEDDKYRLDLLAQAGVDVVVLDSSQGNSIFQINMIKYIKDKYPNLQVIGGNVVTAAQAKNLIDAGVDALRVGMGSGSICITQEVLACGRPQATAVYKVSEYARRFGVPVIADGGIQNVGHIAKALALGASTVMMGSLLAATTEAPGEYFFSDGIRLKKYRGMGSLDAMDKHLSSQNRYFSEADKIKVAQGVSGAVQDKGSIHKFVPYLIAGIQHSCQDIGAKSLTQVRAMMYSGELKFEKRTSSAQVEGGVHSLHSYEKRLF

SMILES	IC50 (GuaB^Sa)	IC50 (GuaB^Ec)	IC50 (hIMPDH2)	IC50 (GuaB^Ab)
C[C@H](Nc1ccc2ncc(CO)cc2c1)C(=O)Nc1ccc(Cl)c(N(C)C)c1 [G2]	3.5 nM	15.8 nM	> 50000 nM	0.666 nM
C[C@H](Nc1ccc2ncc(CO)cc2c1)C(=O)Nc1ccc(Br)nc1 [G3]	2.45 nM	91 nM	> 50000 nM	0.975 nM
C[C@H](Nc1ccc(-n2cncn2)cc1)C(=O)Nc1ccc2sc(-c3cc[n+]([O-])cc3)nc2c1 [G4]	0.62 nM	903 nM	> 50000 nM	0.617 nM
C[C@H](Nc1ccc2ncc(CO)cc2c1)C(=O)Nc1ccc(Cl)c(N2CCOCC2)c1 [G6]	0.801 nM	5.9 nM	> 50000 nM	0.564 nM
C[C@H](Nc1ccc(-n2cccn2)cc1)C(=O)Nc1ccc2sc(-c3ccncc3)nc2c1 [G5]	0.511 nM	569 nM	> 50000 nM	0.394 nM
